# Source: patent publication US20120252804A1, “COMPOSITION AND METHOD FOR CONTROLLING ARTHROPOD PESTS” (SUMITOMO CHEMICAL COMPANY, LIMITED, priority 2009, published 2012)
# Columns and labels:
# Assay type in all cases: in vivo
# [1] = system: brown planthopper (Nilaparvata lugens); test: Test Example 1: pesticidal effect against brown planthopper by foliage spray treatment of rice; details: composition of the compound and pyriproxyfen; foliage spray on rice seedlings, third-instar larvae, after 5 days; summary of Table 43
# [2] = system: Sweetpotato Whitefly (Bemisia tabaci); test: Test Example 2: pesticidal effect of leaf dipping treatment on Sweetpotato Whitefly; details: composition of the compound and pyriproxyfen; cabbage leaf disk with eggs dipped 30 seconds, after 8 days; summary of Table 44
# [3] = system: brown planthopper (Nilaparvata lugens); test: Test Example 3: pesticidal effect against brown planthopper by foliage spray treatment of rice; details: composition of the compound and pyriproxyfen; foliage spray on rice seedlings, third-instar larvae, after 5 days; summary of Table 45
# [4] = system: Sweetpotato Whitefly (Bemisia tabaci); test: Test Example 4: pesticidal effect of leaf dipping treatment on Sweetpotato Whitefly; details: composition of the compound and pyriproxyfen; cabbage leaf disk with eggs dipped 30 seconds, after 8 days; summary of Table 46
SMILES,pesticidal efficacy against brown planthopper (Nilaparvata lugens) [1],pesticidal efficacy on Sweetpotato Whitefly (Bemisia tabaci) [2],pesticidal efficacy against brown planthopper (Nilaparvata lugens) [3],pesticidal efficacy on Sweetpotato Whitefly (Bemisia tabaci) [4]
"FC(F)(F)c1ccc2oc(-c3ccncc3Cl)nc2c1 [Compound 18, 2-(3-chloropyridin-4-yl)-5-(trifluoromethyl)benzoxazole]",high pesticidal efficacy,high pesticidal efficacy,,
"FC(F)(F)COc1cnccc1-c1nc2cc(C(F)(F)F)ccc2o1 [Compound 39, 2-[3-(2,2,2-trifluoroethyl)oxypyridin-4-yl]-5-(trifluoromethyl)benzoxazole]",,,high pesticidal efficacy,high pesticidal efficacy
"CC(C)Oc1cnccc1-c1nc2cc(C(F)(F)F)ccc2o1 [Compound 70, 2-(3-isopropoxypyridin-4-yl)-5-(trifluoromethyl)benzoxazole]",high pesticidal efficacy,high pesticidal efficacy,,
"FC(F)(F)Sc1ccc2oc(-c3ccncc3Cl)nc2c1 [Compound 77, 2-(3-chloropyridin-4-yl)-5-(trifluoromethylthio)benzoxazole]",high pesticidal efficacy,high pesticidal efficacy,,
"CCc1cnccc1-c1nc2cc(OC(F)(F)F)ccc2o1 [Compound 109, 2-(3-ethylpyridin-4-yl)-5-(trifluoromethoxy)benzoxazole]",high pesticidal efficacy,high pesticidal efficacy,,
"CC(C)COc1cnccc1-c1nc2cc(C(F)(F)F)ccc2o1 [Compound 116, 2-(3-isobutoxypyridin-4-yl)-5-(trifluoromethyl)benzoxazole]",,,high pesticidal efficacy,high pesticidal efficacy
"CC(C)(C)COc1cnccc1-c1nc2cc(C(F)(F)F)ccc2o1 [Compound 117, 2-[3-(2,2-dimethylpropoxy)pyridin-4-yl]-5-(trifluoromethyl)benzoxazole]",,,high pesticidal efficacy,high pesticidal efficacy
"FC(F)(F)c1ccc2oc(-c3ccncc3-c3cccnc3)nc2c1 [Compound 128, 4-(5-trifluoromethyl-benzoxazole-2-yl)-[3,3]bipyridinyl]",high pesticidal efficacy,high pesticidal efficacy,,
"FC(F)(F)c1cnc2oc(-c3ccncc3Cl)nc2c1 [Compound 139, 2-(3-chloropyridin-4-yl)-6-(trifluoromethyl)oxazolo[5,4-b]pyridine]",high pesticidal efficacy,high pesticidal efficacy,,
"CCc1cnccc1-c1nc2cc(C(F)(F)F)cnc2o1 [Compound 143, 2-(3-ethylpyridin-4-yl)-6-(trifluoromethyl)oxazolo[5,4-b]pyridine]",high pesticidal efficacy,high pesticidal efficacy,,
"CSc1cnccc1-c1nc2cc(C(F)(F)F)cnc2o1 [Compound 146, 2-(3-methylthiopyridin-4-yl)-6-(trifluoromethyl)oxazolo[5,4-b]pyridine]",high pesticidal efficacy,high pesticidal efficacy,,
FC(F)(F)COc1cnccc1-c1nc2cc(C(F)(F)F)cnc2o1 [Compound 163],,,high pesticidal efficacy,high pesticidal efficacy
